One assay relates to H22 transplanted tumor. The settings on record: H22 tumor-bearing mice. The procedure:
Body weight was weighed every three days.
• Species: Rodent; Strain: BALB/c mice; Grade: SPF; Gender: Female; Age: 5-6 weeks.
• The H22 mouse hepatoma cell line was purchased from Wuhan Procell Life Technology Co., Ltd. (Wuhan, China, Contract No.: XD-000-2022-03-30-0029) and stored at −80° C. after arrival.
Ascitic tumor fluid was then diluted with matrigel to adjust the cell concentration to 2*10^7 cells/mL.

The test system of assay [1] is Pan02 transplanted pancreatic tumor. To be noted: Pan02 tumor-bearing mice.
Procedure: Each mouse was subcutaneously treated with Pan02 cell suspension (5*10^5 cells) in the right axilla of the forelimb. […] Body weight was weighed every three days. The volume of the solid tumor was measured using a digital caliper every three days. The survival of animals was monitored and recorded daily.
• The Pan02 mouse pancreatic cancer line was purchased from Shanghai Enzyme Research Biotechnology Co., Ltd. (Shanghai, China, Cell line No.: CC-Y2144) and stored at −80° C. after arrival. The Pan02 cells were cultured in DMEM supplemented with 10% FBS (v/v), 100 U/ml penicillin G (Sigma-Aldrich, USA), and 100 μg/mL streptomycin (Sigma-Aldrich, USA). The cultures were maintained in a humidified incubator at 37° C. and 5% CO2.
• Different test drugs were administered intravenously (i.v.) and intraperitoneally (i.p.) once every other day at 10:00 am. A or B drugs were injected into the tail vein first, and 5-FU was injected intraperitoneally 24 h later.
• Each mouse was subcutaneously treated with 0.1 mL cell suspension (5*10^5 cells) in the right axilla of the forelimb. When the tumor size increases to 100 mm^3-150 mm^3, mice were randomly divided into treatment groups: the model group (n=10), the A group (n=10), the B group (n=10), the 5-FU group (1.5 mg/kg, n=10), the A+5-FU group (1.5 mg/kg, n=10), the B+5-FU group (1.5 mg/kg, n=10) (Table 1).
• Body weight was weighed every three days. The length and width of the solid tumor was measured with a digital caliper every three days. Tumor volume was calculated by the modified ellipsoidal formula: V =n/6 x (length x width2). The survival time of animals was monitored and recorded daily. […] The percent survival (%) was calculated using the following equations: percent survival (%)=[(10-numbers of mice died in each group)/10]*100%.

Consider `O=c1[nH]cc(F)c(=O)[nH]1` [Composition 5-FU, 5-fluorouracil], for which the “mortality rate of mice on the 22nd day” value with H22 transplanted tumor (5-FU alone 2.5 mg/kg i.p. once every two days) turned out to be 30%. Also, the median survival time with H22 transplanted tumor (5-FU alone 2.5 mg/kg, longer survival defaulted as 22 days) was 22 days; in assay [1] (A or B 100 μL i.v., 5-FU 1.5 mg/kg i.p., once every other day, test 82 days, longer survival defaulted as 82 days) it was 53.5 days. Also, in assay [1] (82 days, 5-FU 1.5 mg/kg), the “tumor volume / antitumor effect” value is “significantly decreased tumor volume”. Further, the “mortality rate of mice on the 82nd day” value in assay [1] (A or B 100 μL i.v., 5-FU 1.5 mg/kg i.p., once every other day, n=10) was 90%.
